Results reported in ChEMBL document CHEMBL2146470, “Novel Carboxamide-Based Allosteric MEK Inhibitors: Discovery and Optimization Efforts toward XL518 (GDC-0973)” (ACS Med Chem Lett, 2012).
Each block holds one compound with its values, some of them ahead of it.

What was measured:
[1] = Drug metabolism in human liver microsomes at 15 uM after 30 mins; type: ADME, Microsome; details: read-out: Drug metabolism
[2] = Oral bioavailability in Sprague-Dawley rat at 5 mg/kg; type: ADME, organism-based; details: in vivo
[3] = Half life in Sprague-Dawley rat at 5 mg/kg, po; type: ADME, organism-based; design: dose 5 mg/kg, route oral; details: in vivo
Rattus norvegicus [4] = assay: Dose normalised AUC (0 to t) in Sprague-Dawley rat at 5 mg/kg, po; type: ADME, organism-based; design: dose 5 mg/kg, route oral; details: in vivo
[5] = Apparent permeability across MDCK cells; type: ADME, cell-based, Canis lupus familiaris; details: dog
[6] = Drug metabolism in rat liver microsomes at 15 uM after 30 mins; type: ADME, Microsome; details: read-out: Drug metabolism
[7] = Clearance in Sprague-Dawley rat at 5 mg/kg, po; type: ADME, organism-based; design: dose 5 mg/kg, route oral; details: in vivo
[8] = target: Dual specificity mitogen-activated protein kinase kinase 1 (Homo sapiens, UniProt Q02750)
Sequence of Dual specificity mitogen-activated protein kinase kinase 1 (Q02750 whole entry): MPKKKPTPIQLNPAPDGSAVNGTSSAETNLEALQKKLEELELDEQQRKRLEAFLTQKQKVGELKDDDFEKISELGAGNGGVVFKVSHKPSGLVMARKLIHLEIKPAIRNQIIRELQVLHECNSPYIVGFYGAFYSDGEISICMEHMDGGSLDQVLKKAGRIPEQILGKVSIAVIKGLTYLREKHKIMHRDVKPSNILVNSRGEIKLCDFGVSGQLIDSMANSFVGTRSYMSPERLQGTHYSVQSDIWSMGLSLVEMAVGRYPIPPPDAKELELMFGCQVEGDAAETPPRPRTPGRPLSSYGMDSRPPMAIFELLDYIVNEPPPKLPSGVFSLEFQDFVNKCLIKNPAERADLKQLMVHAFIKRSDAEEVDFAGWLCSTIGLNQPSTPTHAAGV
Description: Inhibition of MEK1-mediated ERK2 T202/Y204 phosphorylation using biotinylated MBP as substrate preincubated for 30 mins measured after 100 mins by cRAF-MEK-ERK enzyme coupled assay

[9] = target: Dual specificity mitogen-activated protein kinase kinase; MEK1/2 (Homo sapiens, UniProt P36507+Q02750)
Description: Inhibition of MEK-mediated ERK T202/Y204 phosphorylation in human MDA-MB-231T cells after 1 hr by immunoblotting

[10] = Drug uptake in tumor of nude NCr mouse xenografted with human MDA-MB-231T cells at 5 mg/kg, po measured after 24 hrs by LC-MS analysis; type: ADME, organism-based; design: dose 5 mg/kg, route oral; details: read-out: Drug uptake
Rattus norvegicus [11] = assay: Toxicity against po dosed rat assessed as adverse effect administered as subchronical dose; type: organism-based; details: in vivo
[12] = Protein binding in serum; type: ADME, cell-free
[13] = Antitumor activity against human MDA-MB-231T cells xenografted in athymic nude NCr mouse assessed as tumor growth inhibition at 1 mg/kg administered qd for 14 days relative to control; type: functional; details: 336 h, read-out: GI
Mus musculus [14] = assay: Inhibition of MEK-mediated ERK T202/Y204 phosphorylation in human MDA-MB-231T cells xenografted in po dosed nude NCr mouse tumor after 24 hrs by immunoblotting; type: functional
Mus musculus [15] = assay: Inhibition of MEK-mediated ERK T202/Y204 phosphorylation in human MDA-MB-231T cells xenografted in nude NCr mouse tumor at 5 mg/kg, po after 24 hrs by immunoblotting; type: functional
[16] = Drug uptake in tumor of nude NCr mouse xenografted with human MDA-MB-231T cells at 20 mg/kg, po measured after 24 hrs by LC-MS analysis; type: ADME, organism-based, Neoplasm; design: dose 20 mg/kg, route oral; details: read-out: Drug uptake
[17] = Drug uptake in tumor of nude NCr mouse xenografted with human MDA-MB-231T cells at 10 mg/kg, po measured after 24 hrs by LC-MS analysis; type: ADME, organism-based, Neoplasm; design: dose 10 mg/kg, route oral; details: read-out: Drug uptake
Salmonella typhimurium = assay: Mutagenic activity in Salmonella typhimurium by Ames test; type: toxicity, organism-based; details: salmonella enterica subsp. enterica serovar typhimurium
[18] = Drug uptake in brain of nude NCr mouse xenografted with human MDA-MB-231T cells at 100 mg/kg, po measured after 24 hrs by LC-MS analysis; type: ADME, organism-based; design: dose 100 mg/kg, route oral; details: read-out: Drug uptake
[19] = Plasma concentration in nude NCr mouse xenografted with human MDA-MB-231T cells at 5 mg/kg, po measured after 24 hrs by LC-MS analysis; type: ADME, organism-based; design: dose 5 mg/kg, route oral
Mus musculus [20] = assay: Inhibition of MEK-mediated ERK T202/Y204 phosphorylation in human MDA-MB-231T cells xenografted in nude NCr mouse tumor at 20 mg/kg, po after 24 hrs by immunoblotting; type: functional
[21] = Plasma concentration in nude NCr mouse xenografted with human MDA-MB-231T cells at 20 mg/kg, po measured after 24 hrs by LC-MS analysis; type: ADME, organism-based; design: dose 20 mg/kg, route oral
[22] = Drug uptake in brain of nude NCr mouse xenografted with human MDA-MB-231T cells at 5 mg/kg, po measured after 24 hrs by LC-MS analysis; type: ADME, organism-based; design: dose 5 mg/kg, route oral; details: read-out: Drug uptake
[23] = Drug uptake in brain of nude NCr mouse xenografted with human MDA-MB-231T cells at 20 mg/kg, po measured after 24 hrs by LC-MS analysis; type: ADME, organism-based; design: dose 20 mg/kg, route oral; details: read-out: Drug uptake
Brain = assay: Drug metabolism in brain of nude NCr mouse xenografted with human MDA-MB-231T cells assessed as 3,4-difluoro-2-(2-fluoro-4-iodophenylamino)benzoic acid level at 100 mg/kg, po measured after 24 hrs by LC-MS analysis; type: ADME, organism-based; design: dose 100 mg/kg, route oral; details: in vivo
Mus musculus [24] = assay: Inhibition of MEK-mediated ERK T202/Y204 phosphorylation in nude NCr mouse brain xenografted with human MDA-MB-231T cells at 100 mg/kg, po after 24 hrs by immunoblotting; type: functional
Mus musculus [25] = assay: Inhibition of MEK-mediated ERK T202/Y204 phosphorylation in nude NCr mouse brain xenografted with human MDA-MB-231T cells at 20 mg/kg, po after 24 hrs by immunoblotting; type: functional
Mus musculus [26] = assay: Inhibition of MEK-mediated ERK T202/Y204 phosphorylation in human MDA-MB-231T cells xenografted in nude NCr mouse tumor at 10 mg/kg, po after 24 hrs by immunoblotting; type: functional
[27] = Plasma concentration in nude NCr mouse xenografted with human MDA-MB-231T cells at 100 mg/kg, po measured after 24 hrs by LC-MS analysis; type: ADME, organism-based; design: dose 100 mg/kg, route oral
[28] = Plasma concentration in athymic nude NCr mouse xenografted with human MDA-MB-231T cells at 3 mg/kg administered qd for 14 days; type: ADME, organism-based; design: dose 3 mg/kg
[29] = Plasma concentration in nude NCr mouse xenografted with human MDA-MB-231T cells at 10 mg/kg, po measured after 24 hrs by LC-MS analysis; type: ADME, organism-based; design: dose 10 mg/kg, route oral
[30] = Drug uptake in tumor of nude NCr mouse xenografted with human MDA-MB-231T cells at 100 mg/kg, po measured after 24 hrs by LC-MS analysis; type: ADME, organism-based, Neoplasm; design: dose 100 mg/kg, route oral; details: read-out: Drug uptake
Mus musculus [31] = assay: Inhibition of MEK-mediated ERK T202/Y204 phosphorylation in nude NCr mouse brain xenografted with human MDA-MB-231T cells at 10 mg/kg, po after 24 hrs by immunoblotting; type: functional
[32] = Antitumor activity against human MDA-MB-231T cells xenografted in athymic nude NCr mouse assessed as tumor growth inhibition at 3 mg/kg administered qd for 14 days relative to control; type: functional; details: 336 h, read-out: GI
Mus musculus [33] = assay: Inhibition of MEK-mediated ERK T202/Y204 phosphorylation in nude NCr mouse brain xenografted with human MDA-MB-231T cells at 5 mg/kg, po after 24 hrs by immunoblotting; type: functional
[34] = Drug uptake in brain of nude NCr mouse xenografted with human MDA-MB-231T cells at 10 mg/kg, po measured after 24 hrs by LC-MS analysis; type: ADME, organism-based; design: dose 10 mg/kg, route oral; details: read-out: Drug uptake
Mus musculus [35] = assay: Inhibition of MEK-mediated ERK T202/Y204 phosphorylation in human MDA-MB-231T cells xenografted in nude NCr mouse tumor at 100 mg/kg, po after 24 hrs by immunoblotting; type: functional

Structure (SMILES): CC(C)NCC1(O)CN(C(=O)c2ccc(F)c(F)c2Nc2ccc(I)cc2F)C1
- metabolised at 0.5 h, 15 µM [1]: 35.8%
- bioavailability [2]: 86%
- half-life [3]: 294 min
- AUCt/dose (Rattus norvegicus [4]): 0.25 µM·h/mg/kg
- Papp [5]: 21 ×10⁻⁶ cm/s
- metabolised at 0.5 h, 15 µM [6]: 40.5%
- CL/F [7]: 99.3 mL/min/kg

Structure (SMILES): CN(C)CC1(O)CN(C(=O)c2ccc(F)c(F)c2Nc2ccc(I)cc2F)C1
- IC50 [8]: 5.1 nM
- IC50 [9]: 14 nM

Structure (SMILES): O=C(c1ccc(F)c(F)c1Nc1ccc(I)cc1F)N1CC(O)(CN2CCOCC2)C1
- IC50 [8]: 1710 nM
- IC50 [9]: 331 nM

Structure (SMILES): C[C@H](N)C1(O)CN(C(=O)c2ccc(F)c(F)c2Nc2ccc(I)cc2F)C1
- metabolised at 0.5 h, 15 µM [1]: 2.6%
- bioavailability [2]: 58%
- half-life [3]: 684 min
- AUCt/dose (Rattus norvegicus [4]): 1.03 µM·h/mg/kg
- Papp [5]: 9.9 ×10⁻⁶ cm/s
- metabolised at 0.5 h, 15 µM [6]: -4.5%
- IC50 [8]: 5.2 nM
- IC50 [9]: 46 nM
- CL/F [7]: 13.3 mL/min/kg

Structure (SMILES): O=C(c1ccc(F)c(F)c1Nc1ccc(I)cc1F)N1CC(O)([C@@H]2CCCCN2)C1 [COBIMETINIB]
- concentration at 24 h [10]: 530 nM
- Activity (Rattus norvegicus [11]): Non-toxic
- Activity [12]: 94%
- metabolised at 0.5 h, 15 µM [1]: 13.8%
- inhibition in vivo at 1 mg/kg [13]: 60%
- bioavailability [2]: 77%
- half-life [3]: 366 min
- ED90 (Mus musculus [14]): 39.7 mg/kg
- inhibition in vivo at 5 mg/kg (Mus musculus [15]): 16%
- AUCt/dose (Rattus norvegicus [4]): 0.35 µM·h/mg/kg
- Papp [5]: 10.5 ×10⁻⁶ cm/s
- concentration at 24 h [16]: 3.59 µM
- metabolised at 0.5 h, 15 µM [6]: 22.4%
- IC50 [8]: 0.9 nM
- IC50 [9]: 0.2 nM
- concentration at 24 h [17]: 1990 nM
- Activity (Salmonella typhimurium): Non-toxic
- CL/F [7]: 59.4 mL/min/kg
- concentration at 24 h [18]: 220 nM
- concentration at 24 h [19]: < 4 nM
- inhibition in vivo at 20 mg/kg (Mus musculus [20]): 75%
- concentration at 24 h [21]: 100 nM
- concentration at 24 h [22]: < 4 nM
- concentration at 24 h [23]: < 4 nM
- Drug uptake (Brain): Not Active
- inhibition in vivo at 100 mg/kg (Mus musculus [24]): 0%
- inhibition in vivo at 20 mg/kg (Mus musculus [25]): 2%
- inhibition in vivo at 10 mg/kg (Mus musculus [26]): 45%
- concentration at 24 h [27]: 120 nM
- concentration at 336 h [28]: 130 nM
- concentration at 24 h [29]: 100 nM
- concentration at 24 h [30]: 22.9 µM
- inhibition in vivo at 10 mg/kg (Mus musculus [31]): 7%
- inhibition in vivo at 3 mg/kg [32]: 93%
- inhibition in vivo at 5 mg/kg (Mus musculus [33]): 8%
- concentration at 24 h [34]: < 4 nM
- inhibition in vivo at 100 mg/kg (Mus musculus [35]): 87%

More lines, in order of falling IC50 [8], values ahead:

- IC50 [8]: 16 nM
- IC50 [9]: 164 nM
Structure (SMILES): C[C@@H](N)C1(O)CN(C(=O)c2ccc(F)c(F)c2Nc2ccc(I)cc2F)C1

- IC50 [8]: 7.6 nM
- IC50 [9]: 50 nM
Structure (SMILES): O=C(c1ccc(F)c(F)c1Nc1ccc(I)cc1F)N1CC(O)(CN2CCCC2)C1

- IC50 [8]: 4.8 nM
- IC50 [9]: 11 nM
Structure (SMILES): CC(C)(C)NCC1(O)CN(C(=O)c2ccc(F)c(F)c2Nc2ccc(I)cc2F)C1
